Results published in US11767310B2, “Nicotinamide RIPK1 inhibitors” (AbbVie Inc., priority 2021, dated 2023).
Read-outs that look alike come from different tables or passages of the source.

Experiments:
Experiment in all cases: Kinase binding screen
Conditions in all cases: read-out: Percent Control at 100 nM Compound Concentration
IKK-alpha = IKK-alpha (Homo sapiens (Human), UniProt O15111)
[1] = target: ABL1(E255K)-phosphorylated (Homo sapiens (Human), UniProt P00519, E255K)
SRPK1 = SRPK1 (Homo sapiens (Human), UniProt Q96SB4)
[2] = target: TYK2(JH1domain-catalytic) (Homo sapiens (Human), UniProt P29597)
LRRK2 = LRRK2 (Homo sapiens (Human), UniProt Q5S007)
[3] = target: RSK1(Kin.Dom.1-N-terminal) (Homo sapiens (Human), UniProt Q15418)
MAP3K15 = MAP3K15 (Homo sapiens (Human), UniProt Q6ZN16)
EPHB3 = EPHB3 (Homo sapiens (Human), UniProt P54753)
NDR2 = NDR2 (Homo sapiens (Human), UniProt Q9Y2H1)
CSNK2A1 = CSNK2A1 (Homo sapiens (Human), UniProt P68400)
STK16 = STK16 (Homo sapiens (Human), UniProt O75716)
[4] = target: ABL1(T315I)-nonphosphorylated (Homo sapiens (Human), UniProt P00519, T315I)
MLK3 = MLK3 (Homo sapiens (Human), UniProt Q16584)
KIT(V559D) = KIT(V559D) (Homo sapiens (Human), UniProt P10721, V559D)
[5] = target: RPS6KA5(Kin.Dom.1-N-terminal) (Homo sapiens (Human), UniProt O75582)
CIT = CIT (Homo sapiens (Human), UniProt O14578)
MET = MET (Homo sapiens (Human), UniProt P08581)
CLK2 = CLK2 (Homo sapiens (Human), UniProt P49760)
PRKCE = PRKCE (Homo sapiens (Human), UniProt Q02156)
PIK3CA = PIK3CA (Homo sapiens (Human), UniProt P42336)
ALK(C1156Y) = ALK(C1156Y) (Homo sapiens (Human), UniProt Q9UM73, C1156Y)
PIK3CA(E545A) = PIK3CA(E545A) (Homo sapiens (Human), UniProt P42336, E545A)
ALK(L1196M) = ALK(L1196M) (Homo sapiens (Human), UniProt Q9UM73, L1196M)
FLT3(K663Q) = FLT3(K663Q) (Homo sapiens (Human), UniProt P36888, K663Q)
SRC = SRC (Homo sapiens (Human), UniProt P12931)
TAK1 = TAK1 (Homo sapiens (Human), UniProt O43318)
CHEK2 = CHEK2 (Homo sapiens (Human), UniProt O96017)
DCAMKL2 = DCAMKL2 (Homo sapiens (Human), UniProt Q8N568)
Sequence of DCAMKL2 (Q8N568 whole entry, looked up): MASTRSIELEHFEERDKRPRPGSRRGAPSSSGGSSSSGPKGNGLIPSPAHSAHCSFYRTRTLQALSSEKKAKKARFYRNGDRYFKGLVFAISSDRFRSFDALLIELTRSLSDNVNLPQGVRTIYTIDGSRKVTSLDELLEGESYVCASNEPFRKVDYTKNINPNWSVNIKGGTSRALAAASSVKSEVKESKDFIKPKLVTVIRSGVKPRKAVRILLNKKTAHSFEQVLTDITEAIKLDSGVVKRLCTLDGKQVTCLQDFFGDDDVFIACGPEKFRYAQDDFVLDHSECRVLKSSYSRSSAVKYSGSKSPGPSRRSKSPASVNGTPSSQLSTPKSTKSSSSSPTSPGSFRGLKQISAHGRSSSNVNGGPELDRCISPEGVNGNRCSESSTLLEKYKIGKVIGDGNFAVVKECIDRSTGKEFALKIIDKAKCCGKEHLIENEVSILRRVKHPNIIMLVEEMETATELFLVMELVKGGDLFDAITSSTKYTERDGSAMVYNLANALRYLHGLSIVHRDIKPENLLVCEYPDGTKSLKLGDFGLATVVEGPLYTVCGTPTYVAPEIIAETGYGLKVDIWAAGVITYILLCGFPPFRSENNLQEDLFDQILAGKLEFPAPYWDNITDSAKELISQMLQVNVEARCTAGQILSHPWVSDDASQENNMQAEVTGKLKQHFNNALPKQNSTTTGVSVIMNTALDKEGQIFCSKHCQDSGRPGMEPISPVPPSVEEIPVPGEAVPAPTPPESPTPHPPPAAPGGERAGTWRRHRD

Sequence of RPS6KA5(Kin.Dom.1-N-terminal) (O75582 49-318): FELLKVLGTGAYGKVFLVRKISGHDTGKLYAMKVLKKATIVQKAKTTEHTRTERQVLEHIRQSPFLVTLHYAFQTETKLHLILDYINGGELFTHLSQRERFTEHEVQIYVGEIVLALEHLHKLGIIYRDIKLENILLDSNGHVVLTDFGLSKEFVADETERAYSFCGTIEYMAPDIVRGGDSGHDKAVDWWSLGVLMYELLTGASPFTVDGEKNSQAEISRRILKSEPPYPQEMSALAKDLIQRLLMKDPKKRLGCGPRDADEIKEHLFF
Sequence of ALK(C1156Y) (Q9UM73 19-1620 C1156Y): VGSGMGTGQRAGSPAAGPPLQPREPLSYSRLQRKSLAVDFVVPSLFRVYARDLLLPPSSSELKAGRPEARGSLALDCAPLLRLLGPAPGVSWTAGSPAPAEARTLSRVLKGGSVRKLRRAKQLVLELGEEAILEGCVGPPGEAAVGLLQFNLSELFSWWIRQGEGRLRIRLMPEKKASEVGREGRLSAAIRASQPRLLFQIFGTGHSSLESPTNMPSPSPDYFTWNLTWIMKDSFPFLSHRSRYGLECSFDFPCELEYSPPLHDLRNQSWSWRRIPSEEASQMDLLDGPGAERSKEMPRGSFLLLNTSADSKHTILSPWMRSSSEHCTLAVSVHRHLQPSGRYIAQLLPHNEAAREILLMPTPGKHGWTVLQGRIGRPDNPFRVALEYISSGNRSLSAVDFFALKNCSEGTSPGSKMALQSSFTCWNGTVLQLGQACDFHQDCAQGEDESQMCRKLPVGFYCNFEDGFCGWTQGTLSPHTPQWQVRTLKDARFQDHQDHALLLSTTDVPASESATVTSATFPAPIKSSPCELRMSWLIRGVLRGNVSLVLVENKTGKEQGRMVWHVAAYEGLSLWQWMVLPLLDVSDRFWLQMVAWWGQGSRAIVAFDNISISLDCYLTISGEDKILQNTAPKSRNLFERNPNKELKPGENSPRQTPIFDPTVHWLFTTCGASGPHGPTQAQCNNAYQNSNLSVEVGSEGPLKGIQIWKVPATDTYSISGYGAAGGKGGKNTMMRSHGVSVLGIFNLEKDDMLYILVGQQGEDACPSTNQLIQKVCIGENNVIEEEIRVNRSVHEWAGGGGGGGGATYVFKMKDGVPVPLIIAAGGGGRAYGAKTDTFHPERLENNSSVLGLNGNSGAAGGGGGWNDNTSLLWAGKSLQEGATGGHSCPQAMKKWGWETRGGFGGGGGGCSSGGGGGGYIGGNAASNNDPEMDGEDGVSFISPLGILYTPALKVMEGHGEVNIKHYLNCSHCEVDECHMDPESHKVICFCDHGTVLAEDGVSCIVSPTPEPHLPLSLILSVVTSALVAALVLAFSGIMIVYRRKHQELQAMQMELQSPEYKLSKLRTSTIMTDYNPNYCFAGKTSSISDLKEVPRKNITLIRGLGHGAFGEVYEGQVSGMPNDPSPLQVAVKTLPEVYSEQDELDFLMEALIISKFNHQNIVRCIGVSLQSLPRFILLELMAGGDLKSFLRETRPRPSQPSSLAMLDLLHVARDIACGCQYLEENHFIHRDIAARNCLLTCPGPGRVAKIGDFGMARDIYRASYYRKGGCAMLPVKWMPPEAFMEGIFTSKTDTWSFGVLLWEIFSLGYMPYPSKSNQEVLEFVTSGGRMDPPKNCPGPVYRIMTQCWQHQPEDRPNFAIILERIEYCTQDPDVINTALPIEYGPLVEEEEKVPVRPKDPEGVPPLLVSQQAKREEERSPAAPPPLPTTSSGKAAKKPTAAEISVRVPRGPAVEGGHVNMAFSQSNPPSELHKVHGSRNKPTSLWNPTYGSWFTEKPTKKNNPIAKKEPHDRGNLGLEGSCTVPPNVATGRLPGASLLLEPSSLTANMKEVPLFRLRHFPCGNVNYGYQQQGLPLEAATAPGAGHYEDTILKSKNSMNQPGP
Sequence of MLK3 (Q16584 whole entry): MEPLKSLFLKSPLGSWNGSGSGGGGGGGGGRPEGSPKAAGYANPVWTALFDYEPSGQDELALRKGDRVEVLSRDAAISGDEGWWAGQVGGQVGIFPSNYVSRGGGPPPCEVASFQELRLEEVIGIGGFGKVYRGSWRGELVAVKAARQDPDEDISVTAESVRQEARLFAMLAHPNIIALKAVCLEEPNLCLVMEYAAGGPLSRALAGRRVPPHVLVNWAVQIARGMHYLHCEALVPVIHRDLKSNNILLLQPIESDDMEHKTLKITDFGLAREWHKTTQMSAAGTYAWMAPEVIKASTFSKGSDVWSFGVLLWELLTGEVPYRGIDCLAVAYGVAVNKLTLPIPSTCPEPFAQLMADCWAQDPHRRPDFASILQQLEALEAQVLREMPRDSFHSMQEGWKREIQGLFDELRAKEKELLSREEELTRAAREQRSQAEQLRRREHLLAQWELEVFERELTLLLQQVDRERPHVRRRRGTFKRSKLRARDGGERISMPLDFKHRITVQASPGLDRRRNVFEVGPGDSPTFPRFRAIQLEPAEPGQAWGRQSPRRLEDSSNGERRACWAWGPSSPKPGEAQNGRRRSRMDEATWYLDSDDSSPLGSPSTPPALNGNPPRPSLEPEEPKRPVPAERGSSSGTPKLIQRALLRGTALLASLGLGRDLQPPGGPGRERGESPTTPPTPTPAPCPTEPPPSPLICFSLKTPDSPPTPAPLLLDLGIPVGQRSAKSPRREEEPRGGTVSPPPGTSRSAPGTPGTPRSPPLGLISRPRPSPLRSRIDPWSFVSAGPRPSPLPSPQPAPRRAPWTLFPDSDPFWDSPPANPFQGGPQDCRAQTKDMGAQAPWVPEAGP
Sequence of IKK-alpha (O15111 whole entry): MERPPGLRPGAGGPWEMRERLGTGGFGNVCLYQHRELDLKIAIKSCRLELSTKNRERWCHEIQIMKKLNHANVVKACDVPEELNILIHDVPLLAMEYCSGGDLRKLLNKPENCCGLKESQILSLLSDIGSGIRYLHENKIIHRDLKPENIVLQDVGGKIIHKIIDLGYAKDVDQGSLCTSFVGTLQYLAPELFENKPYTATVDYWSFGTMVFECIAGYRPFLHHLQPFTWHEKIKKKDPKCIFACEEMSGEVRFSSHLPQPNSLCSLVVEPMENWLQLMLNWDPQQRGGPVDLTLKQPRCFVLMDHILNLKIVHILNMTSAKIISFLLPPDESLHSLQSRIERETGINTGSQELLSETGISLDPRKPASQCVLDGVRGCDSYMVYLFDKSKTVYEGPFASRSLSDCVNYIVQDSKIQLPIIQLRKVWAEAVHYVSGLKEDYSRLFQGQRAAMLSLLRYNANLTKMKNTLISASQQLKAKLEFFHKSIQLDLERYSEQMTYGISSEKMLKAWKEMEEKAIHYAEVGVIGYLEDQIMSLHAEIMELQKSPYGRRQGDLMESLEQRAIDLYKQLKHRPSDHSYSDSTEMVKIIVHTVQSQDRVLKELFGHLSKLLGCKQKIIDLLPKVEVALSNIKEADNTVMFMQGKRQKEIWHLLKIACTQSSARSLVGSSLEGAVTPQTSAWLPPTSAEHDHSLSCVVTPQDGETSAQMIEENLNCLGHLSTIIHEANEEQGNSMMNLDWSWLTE
Sequence of ALK(L1196M) (Q9UM73 19-1620 L1196M): as the sequence (Q9UM73 19-1620 C1156Y) above, with Y1138C, L1178M counted along it
Sequence of SRPK1 (Q96SB4 whole entry): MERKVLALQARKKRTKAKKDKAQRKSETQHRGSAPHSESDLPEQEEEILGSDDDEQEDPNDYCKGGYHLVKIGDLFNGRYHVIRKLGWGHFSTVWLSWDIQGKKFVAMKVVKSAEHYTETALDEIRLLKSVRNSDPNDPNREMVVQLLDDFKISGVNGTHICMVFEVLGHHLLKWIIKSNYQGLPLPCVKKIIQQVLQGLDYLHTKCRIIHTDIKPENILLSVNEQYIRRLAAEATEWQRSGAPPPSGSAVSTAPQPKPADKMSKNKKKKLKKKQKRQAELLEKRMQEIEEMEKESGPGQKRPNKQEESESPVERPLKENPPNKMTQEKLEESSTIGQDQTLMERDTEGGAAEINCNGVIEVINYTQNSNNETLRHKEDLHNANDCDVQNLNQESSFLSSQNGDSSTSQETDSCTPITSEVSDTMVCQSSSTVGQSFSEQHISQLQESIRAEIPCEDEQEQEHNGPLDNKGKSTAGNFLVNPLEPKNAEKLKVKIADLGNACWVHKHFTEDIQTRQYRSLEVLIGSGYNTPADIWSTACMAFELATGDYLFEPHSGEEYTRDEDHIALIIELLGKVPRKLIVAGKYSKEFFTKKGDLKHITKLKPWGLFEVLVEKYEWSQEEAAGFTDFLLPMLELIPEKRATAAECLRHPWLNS

Question: What does the source list for CN(C[C@@H](O)Cc1ccccc1)C(=O)c1cncc(C#Cc2cnn(C(F)F)c2)c1 [Example 2, (S)-5-((1-(difluoromethyl)-1H-pyrazol-4-yl)ethynyl)-N-(2-hydroxy-3-phenylpropyl)-N-methylnicotinamide]?
Answer: remaining activity at 0.1 µM (IKK-alpha; IKK-alpha): 100%; remaining activity at 0.1 µM ([1]; ABL1(E255K)-phosphorylated): 86%; remaining activity at 0.1 µM (SRPK1; SRPK1): 100%; remaining activity at 0.1 µM ([2]; TYK2(JH1domain-catalytic)): 100%; remaining activity at 0.1 µM (LRRK2; LRRK2): 100%; remaining activity at 0.1 µM ([3]; RSK1(Kin.Dom.1-N-terminal)): 96%; remaining activity at 0.1 µM (MAP3K15; MAP3K15): 100%; remaining activity at 0.1 µM (EPHB3; EPHB3): 100%; remaining activity at 0.1 µM (NDR2; NDR2): 94%; remaining activity at 0.1 µM (CSNK2A1; CSNK2A1): 98%; remaining activity at 0.1 µM (STK16; STK16): 98%; remaining activity at 0.1 µM ([4]; ABL1(T315I)-nonphosphorylated): 100%; remaining activity at 0.1 µM (MLK3; MLK3): 95%; remaining activity at 0.1 µM (KIT(V559D); KIT(V559D)): 100%; remaining activity at 0.1 µM ([5]; RPS6KA5(Kin.Dom.1-N-terminal)): 91%; remaining activity at 0.1 µM (CIT; CIT): 98%; remaining activity at 0.1 µM (MET; MET): 100%; remaining activity at 0.1 µM (CLK2; CLK2): 95%; remaining activity at 0.1 µM (PRKCE; PRKCE): 72%; remaining activity at 0.1 µM (PIK3CA; PIK3CA): 100%; remaining activity at 0.1 µM (ALK(C1156Y); ALK(C1156Y)): 100%; remaining activity at 0.1 µM (PIK3CA(E545A); PIK3CA(E545A)): 89%; remaining activity at 0.1 µM (ALK(L1196M); ALK(L1196M)): 100%; remaining activity at 0.1 µM (FLT3(K663Q); FLT3(K663Q)): 100%; remaining activity at 0.1 µM (SRC; SRC): 97%; remaining activity at 0.1 µM (TAK1; TAK1): 97%; remaining activity at 0.1 µM (CHEK2; CHEK2): 100%; remaining activity at 0.1 µM (DCAMKL2; DCAMKL2): 100%

Question: CN(C[C@H](Cc1ccccc1)OP(=O)(O)O)C(=O)c1cncc(C#Cc2cnn(C(F)F)c2)c1 [Example 19, (S)-1-(5-((1-(difluoromethyl)-1H-pyrazol-4-yl)ethynyl)-N-methylnicotinamido)-3-phenylpropan-2-yl dihydrogen phosphate] was tested. Which remaining activity at 0.1 µM (IKK-alpha) did it give?
Answer: Its remaining activity at 0.1 µM is 99%.

Question: And the remaining activity at 0.1 µM [1]?
Answer: Its remaining activity at 0.1 µM is 91%.

Question: What about the remaining activity at 0.1 µM (SRPK1) of the same compound?
Answer: Its remaining activity at 0.1 µM is 100%.

Question: What about the remaining activity at 0.1 µM [2] of the same compound?
Answer: Its remaining activity at 0.1 µM is 100%.

Question: And the remaining activity at 0.1 µM (LRRK2)?
Answer: The remaining activity at 0.1 µM was 81%.

Question: What about the remaining activity at 0.1 µM [3] of the same compound?
Answer: Its remaining activity at 0.1 µM is 100%.

Question: What about the remaining activity at 0.1 µM (MAP3K15) of the same compound?
Answer: Its remaining activity at 0.1 µM is 97%.

Question: What about the remaining activity at 0.1 µM (EPHB3) of the same compound?
Answer: The remaining activity at 0.1 µM was 100%.

Question: What about the remaining activity at 0.1 µM (NDR2) of the same compound?
Answer: Its remaining activity at 0.1 µM is 84%.

Question: What about the remaining activity at 0.1 µM (CSNK2A1) of the same compound?
Answer: The remaining activity at 0.1 µM was 98%.

Question: What about the remaining activity at 0.1 µM (STK16) of the same compound?
Answer: The remaining activity at 0.1 µM was 92%.

Question: And the remaining activity at 0.1 µM [4]?
Answer: Its remaining activity at 0.1 µM is 97%.

Question: What about the remaining activity at 0.1 µM (MLK3) of the same compound?
Answer: Its remaining activity at 0.1 µM is 89%.

Question: What about the remaining activity at 0.1 µM (KIT(V559D)) of the same compound?
Answer: Its remaining activity at 0.1 µM is 96%.

Question: What about the remaining activity at 0.1 µM [5] of the same compound?
Answer: The remaining activity at 0.1 µM was 100%.

Question: And the remaining activity at 0.1 µM (CIT)?
Answer: The remaining activity at 0.1 µM was 95%.

Question: What about the remaining activity at 0.1 µM (MET) of the same compound?
Answer: The remaining activity at 0.1 µM was 100%.

Question: What about the remaining activity at 0.1 µM (CLK2) of the same compound?
Answer: Its remaining activity at 0.1 µM is 100%.

Question: And the remaining activity at 0.1 µM (PRKCE)?
Answer: Its remaining activity at 0.1 µM is 68%.

Question: And the remaining activity at 0.1 µM (PIK3CA)?
Answer: The remaining activity at 0.1 µM was 100%.

Question: And the remaining activity at 0.1 µM (ALK(C1156Y))?
Answer: The remaining activity at 0.1 µM was 100%.

Question: What about the remaining activity at 0.1 µM (PIK3CA(E545A)) of the same compound?
Answer: The remaining activity at 0.1 µM was 94%.

Question: And the remaining activity at 0.1 µM (ALK(L1196M))?
Answer: Its remaining activity at 0.1 µM is 100%.

Question: What about the remaining activity at 0.1 µM (FLT3(K663Q)) of the same compound?
Answer: Its remaining activity at 0.1 µM is 100%.

Question: And the remaining activity at 0.1 µM (SRC)?
Answer: Its remaining activity at 0.1 µM is 100%.

Question: And the remaining activity at 0.1 µM (TAK1)?
Answer: Its remaining activity at 0.1 µM is 95%.

Question: And the remaining activity at 0.1 µM (CHEK2)?
Answer: Its remaining activity at 0.1 µM is 100%.

Question: And the remaining activity at 0.1 µM (DCAMKL2)?
Answer: Its remaining activity at 0.1 µM is 100%.
